Data reported in article PMC4222822, “Discovery and Characterization of a Potent and Selective Inhibitor of Aedes aegypti Inward Rectifier Potassium Channels” (PLoS ONE, 2014).

Key:
Kir4.1 = molecular target: T1, Kir4.1 (Homo sapiens, UniProt P78508); assay: Tl+ flux selectivity assay, Kir4.1; format: cell-based; settings: n = 2 independent experiments in triplicate, read-out: Inhibition of Tl+ flux (IC50)
T1 construct: expressed in transfected cells
T1 sequence (P78508 1-379): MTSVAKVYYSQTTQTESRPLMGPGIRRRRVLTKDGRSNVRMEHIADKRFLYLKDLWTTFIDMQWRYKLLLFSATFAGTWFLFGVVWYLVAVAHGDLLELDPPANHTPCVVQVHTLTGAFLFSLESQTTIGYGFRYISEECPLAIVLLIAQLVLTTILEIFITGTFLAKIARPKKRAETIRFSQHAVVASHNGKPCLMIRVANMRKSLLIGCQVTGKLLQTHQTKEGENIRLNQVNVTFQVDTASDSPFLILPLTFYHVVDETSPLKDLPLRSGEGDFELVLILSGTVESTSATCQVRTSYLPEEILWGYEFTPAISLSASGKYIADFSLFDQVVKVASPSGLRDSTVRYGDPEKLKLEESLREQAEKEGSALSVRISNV
Procedure: (§1) Tl^+ flux assays were performed essentially as described previously, [18], [19]. Briefly, stably transfected T-Rex-HEK-293 cells expressing AeKir1 channels were cultured overnight in 384-well plates (20,000 cells/20 µL/well black-walled, clear-bottomed BD PureCoat amine-coated plates (BD, Bedford, MA) with a plating media containing DMEM, 10% dialyzed FBS and 1 µg/mL tetracycline. The next day, the cell culture medium was replaced with a dye-loading solution containing assay buffer (Hanks Balanced Salt Solution with 20 mM HEPES, pH 7.3), 0.01% (w/v) Pluronic F-127 (Life Technologies, Carlsbad, CA), and 1.2 µM of the thallium-sensitive dye Thallos-AM (TEFlabs, Austin, TX). Following 1 hr incubation at room temperature, the dye-loading solution was washed from the plates and replaced with 20 µL/well of assay buffer. […] Tl^+ flux data were analyzed as previously described, [21], [22] using a combination of Excel (Microsoft Corp, Redmond, WA) with XLfit add-in (IDBS, Guildford, Surrey, UK) and OriginPro (OriginLab, Northampton, MA) software. […] The slope of the fluorescence increase beginning 5 s after Tl^+ addition and ending 15 s after Tl^+ addition was calculated.

Kir3.1/3.2 = molecular target: T2, Kir3.1/3.2 (Homo sapiens, UniProt P48051+P48549); assay: Tl+ flux selectivity assay, Kir3.1/3.2; format: cell-based; settings: Kir3.1/3.2 (with mGlu8, EC80 glutamate); n = 2 independent experiments in triplicate; read-out: Inhibition of Tl+ flux (IC50)
T2 construct: expressed in transfected cells
T2 sequence (P48549 1-501): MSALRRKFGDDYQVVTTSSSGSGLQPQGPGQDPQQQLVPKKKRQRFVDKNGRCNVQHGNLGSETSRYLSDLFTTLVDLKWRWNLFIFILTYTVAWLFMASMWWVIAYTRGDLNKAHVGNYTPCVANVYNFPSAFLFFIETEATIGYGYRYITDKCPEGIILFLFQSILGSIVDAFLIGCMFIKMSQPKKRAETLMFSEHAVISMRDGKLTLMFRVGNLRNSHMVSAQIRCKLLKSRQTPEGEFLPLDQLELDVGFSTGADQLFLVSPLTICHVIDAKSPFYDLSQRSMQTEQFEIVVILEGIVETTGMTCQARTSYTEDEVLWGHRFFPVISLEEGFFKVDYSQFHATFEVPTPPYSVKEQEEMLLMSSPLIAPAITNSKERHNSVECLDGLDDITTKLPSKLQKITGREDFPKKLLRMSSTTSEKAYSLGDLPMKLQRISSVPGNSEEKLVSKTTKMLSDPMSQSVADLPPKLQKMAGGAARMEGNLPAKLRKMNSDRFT
T2 sequence (P48051 1-423): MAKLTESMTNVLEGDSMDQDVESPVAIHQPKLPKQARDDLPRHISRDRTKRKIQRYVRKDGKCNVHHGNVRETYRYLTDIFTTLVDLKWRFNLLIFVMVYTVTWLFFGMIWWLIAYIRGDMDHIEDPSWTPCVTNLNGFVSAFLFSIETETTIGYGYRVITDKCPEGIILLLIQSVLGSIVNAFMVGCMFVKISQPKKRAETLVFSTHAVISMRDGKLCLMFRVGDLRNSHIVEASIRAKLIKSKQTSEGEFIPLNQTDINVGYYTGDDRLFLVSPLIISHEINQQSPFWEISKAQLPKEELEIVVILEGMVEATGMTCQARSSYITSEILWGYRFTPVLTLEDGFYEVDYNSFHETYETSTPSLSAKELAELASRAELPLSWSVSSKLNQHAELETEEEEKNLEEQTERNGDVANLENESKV
Procedure: [Worded in the source for another target; used here, by the source, with some conditions changed.] as §1

CCC(=O)N1c2ccc(S(=O)(=O)Nc3cccc(OC)c3)cc2CC1C (centres unmarked) [VU625, N-(3-methoxyphenyl)-2-methyl-1-propionylindoline-5-sulfonamide]
IC50 (Kir4.1): > 30 µM
IC50 (Kir3.1/3.2): 8.6 µM
